Measured values: patent US11759455B2, “Substituted 1H-imidazo[4,5-b]pyridin-2(3H)-ones and their use as GLUN2B receptor modulators” (JANSSEN PHARMACEUTICA NV, priority 2016, dated 2023)
Where two headings read alike, the source gives them in different places.

Biological target: T1, human GluN1/GluN2B NMDA receptors (Homo sapiens, UniProt Q13224)
T1 construct: expressed in transfected cells
Experiment: Cell-based calcium flux (FLIPR) assay on cloned human NR1/NR2B ion channels expressed in mammalian cells (standard and HTS buffer variants);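 also: stable Tet-On inducible cell line, Ca2+ influx triggered by glutamate at about EC40 plus 10 µM glycine, fluorescent dye read-out over 5 min, normalized to control wells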

[1] = standard assay buffer (0.5 mM MgCl2 in dye loading buffer; 137 mM NaCl, 4 mM KCl in assay buffer), human GluN1/GluN2B, read-out: NR2B IC50 (μM) standard assay
[2] = standard assay buffer (0.5 mM MgCl2 dye loading; 137 mM NaCl, 4 mM KCl assay buffer), human GluN1/GluN2B cells, read-out: NR2B IC50 (μM) standard assay
[3] = HTS assay buffer (1.5 mM MgCl2 in dye loading buffer; 150 mM NaCl, 3 mM KCl in assay buffer), human GluN1/GluN2B, read-out: NR2B IC50 (μM) HTS assay

T1 sequence (Q13224 27-1484, other chains not shown): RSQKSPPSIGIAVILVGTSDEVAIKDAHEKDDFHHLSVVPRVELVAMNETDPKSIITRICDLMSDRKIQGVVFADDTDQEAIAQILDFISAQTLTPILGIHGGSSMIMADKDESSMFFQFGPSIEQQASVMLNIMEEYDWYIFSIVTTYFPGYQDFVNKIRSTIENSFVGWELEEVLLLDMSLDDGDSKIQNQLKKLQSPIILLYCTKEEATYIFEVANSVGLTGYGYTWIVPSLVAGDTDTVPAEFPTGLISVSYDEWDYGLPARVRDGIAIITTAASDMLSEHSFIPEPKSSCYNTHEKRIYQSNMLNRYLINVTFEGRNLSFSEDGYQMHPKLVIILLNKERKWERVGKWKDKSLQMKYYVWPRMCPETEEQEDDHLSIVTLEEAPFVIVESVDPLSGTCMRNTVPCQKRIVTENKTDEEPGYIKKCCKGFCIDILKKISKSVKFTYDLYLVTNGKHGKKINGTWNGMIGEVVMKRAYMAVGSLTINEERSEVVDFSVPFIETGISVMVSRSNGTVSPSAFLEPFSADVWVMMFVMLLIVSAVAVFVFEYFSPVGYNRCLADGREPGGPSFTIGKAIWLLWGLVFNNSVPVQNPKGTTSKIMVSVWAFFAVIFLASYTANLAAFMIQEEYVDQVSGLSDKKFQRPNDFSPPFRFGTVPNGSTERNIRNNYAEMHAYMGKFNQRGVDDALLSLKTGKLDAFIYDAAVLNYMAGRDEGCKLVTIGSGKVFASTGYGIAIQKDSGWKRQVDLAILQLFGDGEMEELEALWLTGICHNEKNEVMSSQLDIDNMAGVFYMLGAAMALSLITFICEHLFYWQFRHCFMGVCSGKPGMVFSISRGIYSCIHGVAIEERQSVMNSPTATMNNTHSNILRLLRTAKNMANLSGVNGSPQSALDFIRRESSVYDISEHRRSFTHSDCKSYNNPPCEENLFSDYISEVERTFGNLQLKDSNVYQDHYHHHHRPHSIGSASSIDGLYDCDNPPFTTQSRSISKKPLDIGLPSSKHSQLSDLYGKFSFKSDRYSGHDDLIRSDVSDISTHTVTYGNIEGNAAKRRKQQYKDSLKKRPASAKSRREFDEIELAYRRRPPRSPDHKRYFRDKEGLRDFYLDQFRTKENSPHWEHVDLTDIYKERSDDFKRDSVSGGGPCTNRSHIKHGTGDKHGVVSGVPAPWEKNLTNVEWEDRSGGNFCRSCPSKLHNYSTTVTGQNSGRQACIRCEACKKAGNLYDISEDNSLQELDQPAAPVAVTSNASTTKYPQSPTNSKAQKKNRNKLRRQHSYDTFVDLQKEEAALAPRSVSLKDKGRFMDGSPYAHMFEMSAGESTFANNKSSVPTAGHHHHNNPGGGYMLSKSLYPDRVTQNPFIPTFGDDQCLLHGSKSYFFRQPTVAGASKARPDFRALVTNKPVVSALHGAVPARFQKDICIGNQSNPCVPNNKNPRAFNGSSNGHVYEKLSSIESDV

IC50 [1] [µM] | IC50 [2] [µM] | SMILES | further results
0.028 | – | Cn1c(=O)n(Cc2cccnn2)c2cc(-c3ccc(Cl)c(OC(F)F)c3)cnc21 [Example 543, 6-[4-Chloro-3-(difluoromethoxy)phenyl]-3-methyl-1-(pyridazin-3-ylmethyl)imidazo[4,5-b]pyridin-2-one] | –
– | 0.365 | O=c1[nH]c2ncc(-c3cccc(C(F)(F)F)c3)cc2n1CCN1CC(O)C1 [Example 147, 1-[2-(3-Hydroxyazetidin-1-yl)ethyl]-6-[3-(trifluoromethyl)phenyl]-3H-imidazo[4,5-b]pyridin-2-one] | –
– | 0.03 | Cc1cncc(Cn2c(=O)[nH]c3ncc(-c4cc(F)c(F)c(F)c4)cc32)c1 [Example 308, 1-[(5-Methyl-3-pyridyl)methyl]-6-(3,4,5-trifluorophenyl)-3H-imidazo[4,5-b]pyridin-2-one] | –
0.022 | – | Cn1c(=O)n(Cc2cccnn2)c2cc(-c3cc(F)c(F)c(C(F)(F)F)c3)cnc21 [Example 387, 6-[3,4-Difluoro-5-(trifluoromethyl)phenyl]-3-methyl-1-(pyridazin-3-ylmethyl)imidazo[4,5-b]pyridin-2-one] | –
– | 2.61 | O=c1[nH]c2ncc(-c3cccc(Cl)c3)cc2n1Cc1ccccn1 [Example 282, 6-(3-Chlorophenyl)-1-(2-pyridylmethyl)-3H-imidazo[4,5-b]pyridin-2-one] | –
– | 0.033 | Cn1c(=O)n(Cc2cccnn2)c2cc(-c3ccc(C(F)F)s3)cnc21 [Example 100, 6-[5-(Difluoromethyl)-2-thienyl]-3-methyl-1-(pyridazin-3-ylmethyl)imidazo[4,5-b]pyridin-2-one] | –
9.72 | – | Cn1c(=O)n(Cc2cncc(Cl)c2)c2cc(-c3ccc(C(F)(F)F)s3)cnc21 [Example 373, 1-[(5-Chloro-3-pyridyl)methyl]-3-methyl-6-[5-(trifluoromethyl)-2-thienyl]imidazo[4,5-b]pyridin-2-one] | –
0.304 | – | Cc1nnc(Cn2c(=O)n(C)c3ncc(-c4ccc(C(F)F)s4)cc32)o1 [Example 560, 6-[5-(Difluoromethyl)-2-thienyl]-3-methyl-1-[(5-methyl-1,3,4-oxadiazol-2-yl)methyl]imidazo[4,5-b]pyridin-2-one] | –
0.03 | – | Cn1c(=O)n(Cc2cccnn2)c2cc(-c3cccc(C(F)F)c3)cnc21 [Example 377, 6-[3-(Difluoromethyl)phenyl]-3-methyl-1-(pyridazin-3-ylmethyl)imidazo[4,5-b]pyridin-2-one] | –
0.017 | – | Cc1cc(-c2cnc3c(c2)n(CC(=O)N(C)C)c(=O)n3C)ccc1F [Example 420, 2-[6-(4-Fuoro-3-methyl-phenyl)-3-methyl-2-oxo-imidazo[4,5-b]pyridin-1-yl]-N,N-dimethyl-acetamide] | –
0.363 | – | Cc1ccc(-c2cnc3c(c2)n(Cc2csnn2)c(=O)n3C)s1 [Example 556, 3-Methyl-6-(5-methyl-2-thienyl)-1-(thiadiazol-4-ylmethyl)imidazo[4,5-b]pyridin-2-one] | –
– | 1.62 | COc1ccc(Cn2c(=O)[nH]c3ncc(-c4cccc(C(F)(F)F)c4)cc32)cn1 [Example 210, 1-[(6-Methoxy-3-pyridyl)methyl]-6-[3-(trifluoromethyl)phenyl]-3H-imidazo[4,5-b]pyridin-2-one] | –
– | 0.017 | Cn1c(=O)n(Cc2cccnn2)c2cc(-c3csc(C(F)(F)F)c3)cnc21 [Example 103, 3-Methyl-1-(pyridazin-3-ylmethyl)-6-[5-(trifluoromethyl)-3-thienyl]imidazo[4,5-b]pyridin-2-one] | –
– | 2.86 | O=c1[nH]c2ncc(-c3cccc(C(F)(F)F)c3)cc2n1Cc1cnccc1C(F)(F)F [Example 260, 6-[3-(Trifluoromethyl)phenyl]-1-[[4-(trifluoromethyl)-3-pyridyl]methyl]-3H-imidazo[4,5-b]pyridin-2-one] | –
– | 0.048 | Cc1cc(-c2cnc3c(c2)n(Cc2ccccn2)c(=O)n3C)ccc1F [Example 6, 6-(4-Fluoro-3-methyl-phenyl)-3-methyl-1-(2-pyridylmethyl)imidazo[4,5-b]pyridin-2-one] | –
– | 0.038 | Cc1cc(-c2cnc3c(c2)n(Cc2cccnc2)c(=O)n3C)ccc1F [Example 45, 6-(4-Fluoro-3-methyl-phenyl)-3-methyl-1-(3-pyridylmethyl)imidazo[4,5-b]pyridin-2-one] | –
0.139 | – | Cc1cc(Cn2c(=O)n(C)c3ncc(-c4ccc(C(F)(F)F)s4)cc32)no1 [Example 570, 3-Methyl-1-[(5-methylisoxazol-3-yl)methyl]-6-[5-(trifluoromethyl)-2-thienyl]imidazo[4,5-b]pyridin-2-one] | –
0.354 | – | Cn1cc(Cn2c(=O)n(C)c3ncc(-c4ccc(C(F)F)s4)cc32)cn1 [Example 561, 6-[5-(Difluoromethyl)-2-thienyl]-3-methyl-1-[(1-methylpyrazol-4-yl)methyl]imidazo[4,5-b]pyridin-2-one] | –

Second part, the compound before the results:

SMILES | IC50 [1] [µM] | IC50 [2] [µM] | further results
COCCn1c(=O)[nH]c2ncc(-c3ccc(F)cc3C)cc21 [Example 2, 6-(4-Fluoro-2-methyl-phenyl)-1-(2-methoxyethyl)-3H-imidazo[4,5-b]pyridin-2-one] | – | – | IC50 (HTS assay buffer (1.5 mM MgCl2 dye loading; 150 mM NaCl, 3 mM KCl assay buffer), human GluN1/GluN2B cells, read-out: NR2B IC50 (μM) HTS assay): 2.06 µM
O=c1[nH]c2ncc(-c3ccccc3)cc2n1CCN1CCC1 [Example 153, 1-[2-(Azetidin-1-yl)ethyl]-6-phenyl-3H-imidazo[4,5-b]pyridin-2-one] | – | 0.283 | –
CCOc1ccccc1-c1cnc2[nH]c(=O)n(Cc3cccc(F)c3)c2c1 [Example 497, 6-(2-Ethoxyphenyl)-1-[(3-fluorophenyl)methyl]-3H-imidazo[4,5-b]pyridin-2-one] | – | – | IC50 [3]: 1.95 µM
CCc1ccc(-c2cnc3c(c2)n(CC(=O)N(C)C)c(=O)n3C)s1 [Example 79, 2-[6-(5-Ethyl-2-thienyl)-3-methyl-2-oxo-imidazo[4,5-b]pyridin-1-yl]-N,N-dimethyl-acetamide] | – | 0.031 | –
Cc1cc(-c2cnc3[nH]c(=O)n(Cc4cncc(F)c4)c3c2)ccc1Cl [Example 306, 6-(4-Chloro-3-methyl-phenyl)-1-[(5-fluoro-3-pyridyl)methyl]-3H-imidazo[4,5-b]pyridin-2-one] | – | 0.086 | –
CCOc1ccccc1-c1cnc2[nH]c(=O)n(Cc3ccc(F)cc3)c2c1 [Example 606, 6-(2-Ethoxyphenyl)-1-[(4-fluorophenyl)methyl]-3H-imidazo[4,5-b]pyridin-2-one] | 2.18 | – | –
O=C(Cn1c(=O)n(CF)c2ncc(-c3ccc(C(F)(F)F)s3)cc21)N1CCCC1 [Example 598, 3-(Fluoromethyl)-1-(2-oxo-2-pyrrolidin-1-yl-ethyl)-6-[5-(trifluoromethyl)-2-thienyl]imidazo[4,5-b]pyridin-2-one] | 0.173 | – | –
Cc1cc(F)ccc1-c1cnc2[nH]c(=O)n(CC(=O)N3CCC3)c2c1 [Example 320, 1-[2-(Azetidin-1-yl)-2-oxo-ethyl]-6-(4-fluoro-2-methyl-phenyl)-3H-imidazo[4,5-b]pyridin-2-one] | 0.075 | – | –
Cc1c(F)ccc(-c2cnc3[nH]c(=O)n(CCN4CC(F)C4)c3c2)c1C [Example 184, 1-[2-(3-Fluoroazetidin-1-yl)ethyl]-6-(4-fluoro-2,3-dimethyl-phenyl)-3H-imidazo[4,5-b]pyridin-2-one] | – | 2.57 | –
O=C(Cn1c(=O)[nH]c2ncc(-c3cccc(C(F)(F)F)c3)cc21)C1CC1 [Example 239, 1-(2-Cyclopropyl-2-oxo-ethyl)-6-[3-(trifluoromethyl)phenyl]-3H-imidazo[4,5-b]pyridin-2-one] | – | 0.034 | –
CN(C)C(=O)Cn1c(=O)n(C)c2ncc(-c3cccc(C(F)(F)F)c3)cc21 [Example 419, N,N-Dimethyl-2-[3-methyl-2-oxo-6-[3-(trifluoromethyl)phenyl]imidazo[4,5-b]pyridin-1-yl]acetamide] | 0.047 | – | –
Cc1cccc(-c2cnc3[nH]c(=O)n(CCN4CCC4)c3c2)c1 [Example 154, 1-[2-(Azetidin-1-yl)ethyl]-6-(m-tolyl)-3H-imidazo[4,5-b]pyridin-2-one] | – | 0.077 | –
COc1ccc(-c2cnc3[nH]c(=O)n(Cc4cccc(F)c4)c3c2)c(OC)c1 [Example 496, 6-(2,4-Dimethoxyphenyl)-1-[(3-fluorophenyl)methyl]-3H-imidazo[4,5-b]pyridin-2-one] | – | – | IC50 [3]: 2.79 µM
COc1cccc(Cn2c(=O)[nH]c3ncc(-c4ccc(F)cc4OC)cc32)c1 [Example 505, 6-(4-Fluoro-2-methoxy-phenyl)-1-[(3-methoxyphenyl)methyl]-3H-imidazo[4,5-b]pyridin-2-one] | 1.64 | – | –
CN(C)C(=O)Cn1c(=O)n(C)c2ncc(-c3ccc(Cl)s3)cc21 [Example 9, 2-[6-(5-Chloro-2-thienyl)-3-methyl-2-oxo-imidazo[4,5-b]pyridin-1-yl]-N,N-dimethyl-acetamide] | – | 0.005 | –
Cc1ccc(C(F)(F)F)cc1-c1cnc2[nH]c(=O)n(CCN3CCC3)c2c1 [Example 172, 1-[2-(Azetidin-1-yl)ethyl]-6-[2-methyl-5-(trifluoromethyl)phenyl]-3H-imidazo[4,5-b]pyridin-2-one] | – | 0.326 | –
Cn1c(=O)n(CC(=O)N2CCC2)c2cc(-c3ccc(C(F)(F)F)s3)cnc21 [Example 27, 1-[2-(Azetidin-1-yl)-2-oxo-ethyl]-3-methyl-6-[5-(trifluoromethyl)-2-thienyl]imidazo[4,5-b]pyridin-2-one] | – | 0.031 | –
COc1ccc(-c2cnc3[nH]c(=O)n(CC(=O)c4cccs4)c3c2)cc1F [Example 457, 6-(3-Fluoro-4-methoxy-phenyl)-1-[2-oxo-2-(2-thienyl)ethyl]-3H-imidazo[4,5-b]pyridin-2-one] | 0.33 | – | –
O=c1[nH]c2ncc(-c3ccccc3)cc2n1CCN1CCCC1 [Example 180, 6-Phenyl-1-(2-pyrrolidin-1-ylethyl)-3H-imidazo[4,5-b]pyridin-2-one] | – | 0.539 | –
